# Square brackets hold non-standard residues; d marks the D form. Side chains are listed from the residue outwards. Peptide text beside a SMILES is read from it. His(τ-Bzl) = N[C@@H](Cc1cn(Cc2ccccc2)cn1)C(=O)O; Phe(3,4-F2) = N[C@@H](Cc1ccc(F)c(F)c1)C(=O)O; Phe(4-F) = N[C@@H](Cc1ccc(F)cc1)C(=O)O; 2Nal = N[C@@H](Cc1ccc2ccccc2c1)C(=O)O; d2Nal = N[C@H](Cc1ccc2ccccc2c1)C(=O)O; Tle = CC(C)(C)[C@H](N)C(=O)O; dNle = CCCC[C@@H](N)C(=O)O
# Tested on: H1299 lung cancer cells
# Assay type: cell-based
# Details: 72 h
# Experimental: MTT assays (Mosmann, T. (1983) J. Immunol. Methods 65:55) were performed with H1299 lung cancer cells. One hundred μL of H1299 cells (0.5×10^5 cells/mL) were seeded in each well of a 96-well culture plate and allowed to grow overnight in Advanced RPMI medium supplemented with 10% fetal bovine serum (FBS) and 1% penicillin-streptomycin. Varying concentrations of cyclic peptide (0-25 μM) were added to the each well and the cells were incubated at 37° C. with 5% CO2 for 72 hours. Ten μL of a MTT stock solution (Roche) was added into each well. The plate was incubated at 37° C. for 4 h. Then 100 μL of SDS-HCl solubilizing buffer was added into each well, and the resulting solution was mixed thoroughly. The plate was incubated at 37° C. overnight. The absorbance of the formazan product was measured at 570 nm using a Molecular Devices Spectramax M5 plate reader. Each experiment was performed in triplicates and the cells without any peptide added were treated as control.
row,SMILES,IC50 [µM]
1,CCCC[C@H]1NC(=O)[C@H](Cc2ccc(F)cc2)NC(=O)[C@H](CCCNC(=N)N)NC(=O)[C@@H](Cc2ccc3ccccc3c2)NC(=O)[C@H](CCCNC(=N)N)NC(=O)[C@H](CCCNC(=N)N)NC(=O)[C@H](CCC(=O)N[C@@H](CCCCN)C(N)=O)NC(=O)[C@@H](C)NC(=O)[C@H]([C@@H](C)O)NC(=O)[C@H](Cc2c[nH]c3ccccc23)NC(=O)[C@H](CCC(N)=O)NC1=O [Cyclorasin 9A1] (cyclo(RR[d2Nal]R[Phe(4-F)][dNle]QWT[dA]E([Lys-NH2]))),13 ± 2
2,CCCC[C@H]1NC(=O)[C@H](Cc2ccc(F)cc2)NC(=O)[C@H](CCCNC(=N)N)NC(=O)[C@@H](Cc2ccc3ccccc3c2)NC(=O)[C@H](CCCNC(=N)N)NC(=O)[C@H](CCCNC(=N)N)NC(=O)[C@H](CCCNC(=N)N)NC(=O)[C@@H](C)NC(=O)[C@H]([C@@H](C)O)NC(=O)[C@H](Cc2cn(Cc3ccccc3)cn2)NC(=O)[C@H](CCC(N)=O)NC1=O [Cyclorasin 9A7] (cyclo([Phe(4-F)][dNle]Q[His(τ-Bzl)]T[dA]RRR[d2Nal]R)),10 ± 1
3,CC(C)C[C@H]1NC(=O)[C@H](Cc2ccc(F)cc2)NC(=O)[C@H](CCCNC(=N)N)NC(=O)[C@@H](Cc2ccc3ccccc3c2)NC(=O)[C@H](CCCNC(=N)N)NC(=O)[C@H](CCCNC(=N)N)NC(=O)[C@@H](CCCNC(=N)N)NC(=O)[C@@H](C)NC(=O)[C@H]([C@@H](C)O)NC(=O)[C@H](Cc2c[nH]c3ccccc23)NC(=O)[C@H](CCC(N)=O)NC1=O [Cyclorasin 9A10] (cyclo(WT[dA][dR]RR[d2Nal]R[Phe(4-F)][dL]Q)),10 ± 3
4,CCCC[C@H]1NC(=O)[C@H](Cc2ccccc2)NC(=O)[C@H](CCCNC(=N)N)NC(=O)[C@@H](Cc2ccc3ccccc3c2)NC(=O)[C@H](CCCNC(=N)N)NC(=O)[C@H](CCCNC(=N)N)NC(=O)[C@@H](CCCNC(=N)N)NC(=O)[C@@H](C)NC(=O)[C@H]([C@@H](C)O)NC(=O)[C@H](Cc2c[nH]c3ccccc23)NC(=O)[C@H](CCC(N)=O)NC1=O [Cyclorasin 9A12],9.6 ± 1.3
5,CCCC[C@H]1NC(=O)[C@H](Cc2ccc(F)cc2)NC(=O)[C@H](CCCNC(=N)N)NC(=O)[C@@H](Cc2ccc3ccccc3c2)NC(=O)[C@H](CCCNC(=N)N)NC(=O)[C@H](CCCNC(=N)N)NC(=O)[C@@H](CCCNC(=N)N)NC(=O)[C@@H](CC(C)C)NC(=O)[C@H]([C@@H](C)O)NC(=O)[C@H](Cc2c[nH]c3ccccc23)NC(=O)[C@H](CCC(N)=O)NC1=O [Cyclorasin 9A15] (cyclo(WT[dL][dR]RR[d2Nal]R[Phe(4-F)][dNle]Q)),12 ± 1

# Continued, values first:
row,IC50 [µM],SMILES
1,11 ± 3,CCCC[C@H]1NC(=O)[C@H](Cc2ccc(F)cc2)NC(=O)[C@H](CCCNC(=N)N)NC(=O)[C@@H](Cc2ccc3ccccc3c2)NC(=O)[C@H](CCCNC(=N)N)NC(=O)[C@H](CCCNC(=N)N)NC(=O)[C@H](CCCNC(=N)N)NC(=O)[C@@H](C(C)C)NC(=O)[C@H](C(C)(C)C)NC(=O)[C@H](Cc2c[nH]c3ccccc23)NC(=O)[C@H](CCC(N)=O)NC1=O [Cyclorasin 9A48] (cyclo(W[Tle][dV]RRR[d2Nal]R[Phe(4-F)][dNle]Q))
2,6.3 ± 0.4,CCCC[C@H]1NC(=O)[C@H](Cc2ccc(F)cc2)NC(=O)[C@H](CCCNC(=N)N)NC(=O)[C@@H](Cc2ccc3ccccc3c2)NC(=O)[C@H](CCCNC(=N)N)NC(=O)[C@H](CCCNC(=N)N)NC(=O)[C@H](CCCNC(=N)N)NC(=O)[C@@H](C)NC(=O)[C@H]([C@@H](C)O)NC(=O)[C@H](Cc2ccc3ccccc3c2)NC(=O)[C@H](CCC(N)=O)NC1=O [Cyclorasin 9A49] (cyclo([2Nal]T[dA]RRR[d2Nal]R[Phe(4-F)][dNle]Q))
3,6.7 ± 0.8,"CCCC[C@H]1NC(=O)[C@H](Cc2ccc(F)c(F)c2)NC(=O)[C@H](CCCNC(=N)N)NC(=O)[C@@H](Cc2ccc3ccccc3c2)NC(=O)[C@H](CCCNC(=N)N)NC(=O)[C@H](CCCNC(=N)N)NC(=O)[C@@H](CCCNC(=N)N)NC(=O)[C@@H](C(C)C)NC(=O)[C@H](C(C)(C)C)NC(=O)[C@H](Cc2c[nH]c3ccccc23)NC(=O)[C@H](CCC(N)=O)NC1=O [Cyclorasin 9A51] (cyclo(W[Tle][dV][dR]RR[d2Nal]R[Phe(3,4-F2)][dNle]Q))"

# Same assay, conditions: MTT assay
row,SMILES,anti-proliferative activity against lung cancer cells (in words)
1,"CCCC[C@H]1NC(=O)[C@H](Cc2ccc(F)c(F)c2)NC(=O)[C@H](CCCNC(=N)N)NC(=O)[C@@H](Cc2ccc3ccccc3c2)NC(=O)[C@H](CCCNC(=N)N)NC(=O)[C@H](CCCNC(=N)N)NC(=O)[C@@H](CCCNC(=N)N)NC(=O)[C@@H](C(C)C)NC(=O)[C@H](C(C)(C)C)NC(=O)[C@H](Cc2c[nH]c3ccccc23)NC(=O)[C@H](CCC(N)=O)NC1=O [Cyclorasin 9A51] (cyclo(W[Tle][dV][dR]RR[d2Nal]R[Phe(3,4-F2)][dNle]Q))",less effective

# From US20170112896A1, “SMALL MOLECULE RAC OR RHO INHIBITORS” (Ohio State Innovation Foundation, priority 2014, published 2017)
